Measurements: article PMC11656708, “PHP-Family Diesterase from Novosphingobium with Broad Specificity and High Catalytic Efficiency against Organophosphate Flame-Retardant Derived Diesters” (Biochemistry, 2024)
Like-named read-outs stand apart in the source and are kept apart here.

Key:
[1] = system: T1, No-PDE; assay: steady-state kinetics; type: biochemical, Novosphingobium sp. EMRT-2
T1 construct: synthetic gene, recombinant, purified to homogeneity; trinuclear zinc site
From the text: steady-state kinetics on No-PDE

[2] = system: T2, Sb-PDE; type: biochemical, Sphingobium sp. TCM1
T2 construct: synthetic gene, recombinant, purified to homogeneity; trinuclear zinc site
From the text: steady-state kinetics on Sb-PDE

[3] = system: T1, No-PDE; assay: UV/vis Michaelis-Menten kinetics; type: biochemical, Novosphingobium sp. EMRT-2
From the text: UV/vis Michaelis-Menten kinetics on No-PDE

[4] = system: T2, Sb-PDE; assay: UV/vis Michaelis-Menten kinetics; type: biochemical, Sphingobium sp. TCM1
From the text: UV/vis Michaelis-Menten kinetics on Sb-PDE

O=[N+]([O-])c1ccc(OP(=O)(O)O)cc1 [compound 11, p-nitrophenyl phosphate]
Km [1]: 1400 µM | Km [2]: 140 µM

O=[N+]([O-])c1ccc(OP(=O)(O)Oc2ccc([N+](=O)[O-])cc2)cc1 [compound 1, bis-p-nitrophenyl phosphate]
Km [3]: 620 µM | Km [4]: 140 µM

O=P(O)(O)Oc1ccccc1 [compound 12, phenyl phosphate]
Km [2]: 1400 µM

O=P(O)(Oc1ccccc1)Oc1ccccc1 [compound 2, diphenyl phosphate]
Km [3]: 2300 µM | Km [4]: 900 µM
